Test results: US11400019B2, “Sustained release drug delivery systems with reduced impurities and related methods” (DURECT CORPORATION, priority 2020, dated 2022)
Counter-ions that a name gives are not always drawn.

Tested on: patients undergoing elective arthroscopic shoulder surgery
Assay: Example 13 trial: pain intensity and opioid rescue after arthroscopic shoulder surgery
Assay type: in vivo, human
Method: Patients were screened 1 to 14 days before surgery at which time informed consent was obtained. Surgery was performed and the trial drug administered on Day 0. The trial was planned to be divided into two sequential cohorts, each with three treatment groups (a, b and c).
All patients received paracetamol (4 grams/day; 2 grams/day for body weight <66 kg for the first 72 hours) as background treatment. In case sufficient pain relief was not obtained, patients were allowed rescue medication in the form of morphine administered intravenously or orally, which consisted of oral morphine 10 mg at 1-hour intervals or, if unable to tolerate orally intake, intravenous (IV) morphine […] at 5-minute intervals. After 72 hours, subjects were allowed paracetamol and oral morphine on an as-needed basis. Patients recorded pain intensity as well as rescue medication in an electronic diary (eDiary).
Primary: The study had two primary endpoints. […] For the primary endpoints to be met, […] of PI on movement compared to placebo as well as superiority in total use of opioid analgesia needed to be shown. PI “on movement” reported on the NRS scale was summarized by treatment group and time, using descriptive statistics for continuous variables.
Time to first opioid rescue medication usage was defined as the duration between time of trial drug administration and the time of first opioid use

[1] = LOCF, ITT population, hours post-surgery

## CCCCN1CCCCC1C(=O)Nc1c(C)cccc1C (centres unmarked) [bupivacaine HCl, bupivacaine hydrochloride]
0-72 hours after surgery, ITT population
  Total IV morphine equivalent dose of opioid rescue medication, Median: 8.0 mg
Formulation A 5 mL (660 mg) or bupivacaine HCl 20 mL (50 mg) subacromial, ITT
  median cumulative IV morphine-equivalent dose of opioids 0 to 72 hours: 8.0 mg
ITT population
  Pain intensity at rest normalized AUC 1-72 hours, Mean (SD): 2.33 (1.76)
ITT population, Kaplan-Meier estimates
  Time to first use of opioid rescue medication, Median (95% CI): 1.4 (1.0, 4.1) hours
[1]
  Pain intensity on movement, mean AUC (1-24): 5.82
  Pain intensity on movement, mean AUC (1-48): 5.56
  Pain intensity on movement, mean AUC (1-72): 5.16
  Pain intensity on movement, mean AUC (24-48): 5.31
  Pain intensity on movement, mean AUC (48-72): 4.38
Single subacromial dose, ITT
  median time to first use of opioid rescue medication: 1.4 h
  percentage of subjects opioid free during 72 hours after surgery: 27.6%
